This passage reports IC50 results from patent US12668586B2, “AhR inhibitor, use thereof, and preparation method therefor” (CHONGQING PHARSCIN INNOBIO CO., LTD., priority 2021, dated 2026).

This assay concerns the target T1, AhR (Homo sapiens, UniProt P35869).
T1 sequence (P35869 11-848): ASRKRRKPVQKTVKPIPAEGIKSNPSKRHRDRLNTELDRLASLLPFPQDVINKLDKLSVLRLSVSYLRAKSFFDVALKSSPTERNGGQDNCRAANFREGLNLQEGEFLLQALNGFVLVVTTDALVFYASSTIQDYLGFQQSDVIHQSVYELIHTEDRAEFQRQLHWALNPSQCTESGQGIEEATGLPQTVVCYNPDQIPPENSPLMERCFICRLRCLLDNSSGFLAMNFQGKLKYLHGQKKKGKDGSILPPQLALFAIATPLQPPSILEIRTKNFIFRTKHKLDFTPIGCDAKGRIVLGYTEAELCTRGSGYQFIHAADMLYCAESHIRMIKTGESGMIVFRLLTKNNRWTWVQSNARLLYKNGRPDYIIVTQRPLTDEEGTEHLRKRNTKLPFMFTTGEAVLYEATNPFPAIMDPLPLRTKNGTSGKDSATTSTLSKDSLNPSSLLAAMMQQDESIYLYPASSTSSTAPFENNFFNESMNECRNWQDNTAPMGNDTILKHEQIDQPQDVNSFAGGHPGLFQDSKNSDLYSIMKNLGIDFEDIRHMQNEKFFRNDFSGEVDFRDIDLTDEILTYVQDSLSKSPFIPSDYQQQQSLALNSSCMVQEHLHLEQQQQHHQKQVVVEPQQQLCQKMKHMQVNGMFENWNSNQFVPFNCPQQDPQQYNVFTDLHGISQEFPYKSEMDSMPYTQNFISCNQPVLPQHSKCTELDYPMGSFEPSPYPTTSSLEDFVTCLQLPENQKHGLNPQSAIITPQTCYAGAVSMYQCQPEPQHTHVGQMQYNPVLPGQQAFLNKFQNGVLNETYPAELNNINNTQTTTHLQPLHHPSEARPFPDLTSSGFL
Description: AhR inhibitory activity experiment, in vitro assay 1: HepG2-Lucia AhR cells, Lucia luciferase reporter (QUANTI-Luc). The class given is cell-based. The following applies: 24 hours incubation at 37° C., Lucia luciferase in supernatant, read-out: AhR inhibitory activity C50. How it is done:
Test Example: AhR Inhibitory Activity Experiment
When QUANTI-Luc™ (InvivoGen Company) testing reagents are used, AhR gene signaling pathways can be studied by monitoring the activity of Lucia luciferase in the cell culture supernatant.
In Vitro Assay 1: Assay on Inhibitory Activity in Human Cell Lines
Adherent cell layers of HepG2-Lucia™ AhR cells in a logarithmic growth phase were washed with PBS, and then the cells were isolated with trypsin. The isolated cells were centrifuged at 1000 RPM for 5 minutes, the supernatant was removed, and the cells were re-suspended with a test medium by 1.25×10^5 cells/ml.
20,000 cells were added to each well of a 96-well plate, and the 96-well plate was placed in a CO2 incubator to incubate the cells at 37° C. for 24 hours in the absence (negative control) or presence of test compounds with gradient increasing concentrations (typical dilutions: 169 pmol/L, 0.5 nmol/L, 1.5 nmol/L; 4.6 nmol/L, 13.7 nmol/L, 41 nmol/L, 123 nmol/L, 370 nmol/L, 1.1 μmol/L, 3.3 μmol/L and 10 μmol/L, in triplicate).
The 20 μl/well cell supernatant was transferred to a black 96-well plate, a 50 μL/well QUANTI-Luc™ solution was added, and the activity of Lucia luciferase was measured on a multifunctional ELISA reader Spark 10 M (Tecan Company) through a QUANTI-Luc™ luciferase assay system.
Experimental results are shown in Table 1, wherein for IC50 values, “++++” represents IC50<0.05 μM; “+++” represents IC50 between 0.05 μM and 0.2 μM; “++” represents IC50 between 0.2 μM and 1.0 μM; and “+” represents IC50>1.0 μM.
(In general: A reporter such as luciferase makes a cellular process visible.)
For the molecule `C[C@H](NC(=O)c1cc(-c2ccc(Cl)cc2)nc(-c2cnn(C)c2)n1)c1ccncc1` [Compound 4, (S)-6-(4-chlorophenyl)-N-(1-(4-pyridine)ethyl)-2-(1-methyl-1H-pyrazol-4-yl)pyrimidine-4-formamide], the IC50 was below 50 nM.

With `COc1ccc([C@H](C)NC(=O)c2cc(-c3ccc(Cl)cc3)nc(-c3cnn(C)c3)n2)cc1Cl` [Compound 29, (S)-6-(4-chlorophenyl)-N-(1-(3-chloro-4-methoxyphenyl)ethyl)-2-(1-methyl-1H-pyrazol-4-yl)pyrimidine-4-formamide], the IC50 was below 50 nM. In the case of `C[C@H](NC(=O)c1cc(-c2ccc(Cl)cc2)nc(-c2cnn(C)c2)n1)c1cccc(F)c1` [Compound 26, (S)-6-(4-chlorophenyl)-N-(1-(3-fluorophenyl)ethyl)-2-(1-methyl-1H-pyrazol-4-yl)pyrimidine-4-formamide] it was below 50 nM; in that of `C[C@H](NC(=O)c1cc(-c2ccc(Cl)cc2)nc(-c2cnn(C)c2)n1)c1ccccc1C(F)(F)F` [Compound 24, (S)-6-(4-chlorophenyl)-N-(1-(o-trifluoromethylphenyl)ethyl)-2-(1-methyl-1H-pyrazol-4-yl)pyrimidine-4-formamide], 200 to 1000 nM. On to `Cn1cc(-c2nc(C(=O)N[C@H]3c4ccccc4C[C@H]3O)cc(-c3ccc(Cl)cc3)n2)cn1` [Compound 3, (S)-6-(4-chlorophenyl)-N-((1S, 2R)-(−)-1-yl-2-indanol)-2-(1-methyl-1H-pyrazol-4-yl)pyrimidine-4-formamide], for which the IC50 was in the range of 50 to 200 nM. In the case of `C[C@H](NC(=O)c1cc(-c2ccc(Cl)cc2)nc(-c2ccc(C#N)cc2)n1)c1ccnc(F)c1` [Compound 60, (S)-6-(4-chlorophenyl)-N-(1-(2-fluoro-4-pyridine)ethyl)-2-(p-cyanophenyl)pyrimidine-4-formamide] it was above 1000 nM. The figure for `Cn1cc(-c2nc(C(=O)NC3(c4ccc(F)c(F)c4)CC3)cc(-c3ccc(Cl)cc3)n2)cn1` [Compound 7, (S)-6-(4-chlorophenyl)-N-(1-(3,4-difluorophenyl)cyclopropyl)-2-(1-methyl-1H-pyrazol-4-yl)pyrimidine-4-formamide] is below 50 nM; for `C[C@H](NC(=O)c1cc(-c2ccnc(F)c2)nc(-c2cnn(C)c2)n1)c1ccnc(F)c1` [Compound 49, (S)-6-(2-fluoro-4-pyridine)-N-(1-(2-fluoro-4-pyridine)ethyl)-2-(1-methyl-1H-pyrazol-4-yl)pyrimidine-4-formamide] it is above 1000 nM; for `COc1ccc(-c2nc(C(=O)N[C@@H](C)c3ccnc(F)c3)cc(-c3ccc(Cl)cc3)n2)cc1` [Compound 50, (S)-6-(4-chlorophenyl)-N-(1-(2-fluoro-4-pyridine)ethyl)-2-(p-methoxyphenyl)pyrimidine-4-formamide] it is above 1000 nM. In the case of `Cn1cc(-c2nc(C(=O)N[C@H]3CCc4cc(F)c(F)cc43)cc(-c3ccc(Cl)cc3)n2)cn1` [Compound 20, (S)-6-(4-chlorophenyl)-N-((S)-(5,6-difluoro-2,3-dihydro)-(−)-1-yl-2-indene)-2-(1-methyl-1H-pyrazol-4-yl)pyrimidine-4-formamide] it was 50 to 200 nM. With `C[C@H](NC(=O)c1cc(-c2ccc(F)cc2)nc(-c2cnn(C)c2)n1)c1ccnc(F)c1` [Compound 47, (S)-6-(4-fluorophenyl)-N-(1-(2-fluoro-4-pyridine)ethyl)-2-(1-methylpyrazol-4-yl)pyrimidine-4-formamide], the IC50 lay within 50 to 200 nM. In the case of `C[C@H](NC(=O)c1cc(-c2ccc(Cl)cc2)nc(-c2cnn(C)c2)n1)c1ccc(C#N)c(F)c1` [Compound 57, (S)-6-(4-chlorophenyl)-N-(1-(3-fluoro-4-cyanophenyl)ethyl)-2-(1-methyl-1H-pyrazol-4-yl)pyrimidine-4-formamide] it was below 50 nM.
